Assay results as given in patent US20250368923A1, “PRE-MOISTENED ARTICLES FOR REFRESHING CLOTHING IN THE DRYER” (The Clorox Company, priority 2024, published 2025).

Assay: pKa and acid-form fraction of lactic acid
Format: physicochemical
Conditions: pH of 2.2
Description: In some example embodiments of formulations including an allergen neutralizing agent, the pH of the formulations can be kept low. A low pH can enhance the organic acid efficacy (e.g., lactic acid efficacy) in neutralization of airborne allergens. Typically, pH is kept a least 1 unit below pKa of the organic acid to ensure the majority (e.g., at least 90%) of acid stays in the active (conjugate acid) form. […].

| fraction of lactic acid in the acidic form | Compound |
| --- | --- |
| at least 95% | CC(O)C(=O)O (centres unmarked) [lactic acid] |

Assay: not given
Conditions: cited from earlier work

| Compound | Solubility in water (g of compound in 100 g of water at ~20° C.) |
| --- | --- |
| CCCCCC(=O)O [hexanoic acid] | 1.03 g of compound in 100 g of water |

Same assay, conditions: ~20° C.; cited from earlier work

| Compound | Solubility in water (g of compound in 100 g of water at ~20° C.) |
| --- | --- |
| O=C(O)/C=C/C(=O)O [fumaric acid] | 0.7 g of compound in 100 g of water |
| CCCCCCC(=O)O [heptanoic acid] | 0.2 g of compound in 100 g of water |
| CC(=O)CCC(=O)O [levulinic acid] | 79.13 g of compound in 100 g of water |
| O=C(O)/C=C\C(=O)O [maleic acid] | 47.88 g of compound in 100 g of water |
| O=C(O)CC(O)C(=O)O (centres unmarked) [malic acid] | 64.7 g of compound in 100 g of water |
| CS(=O)(=O)O [methane sulfonic acid] | 100 g of compound in 100 g of water |
| CC(=O)C(=O)O [pyruvic acid] | 100 g of compound in 100 g of water |
| C/C=C/C=C/C(=O)O [sorbic acid] | 0.156 g of compound in 100 g of water |
| CCCCC(=O)O [valeric acid] | 3.75 g of compound in 100 g of water |
